In brackets after ≈: the same amount, converted by molar mass. Like-named read-outs stand apart in the source and are kept apart here.
Assays:
MRSA KS1 = experiment: MIC, broth microdilution, MRSA KS1; format: cell-based, Staphylococcus aureus; conditions: for MIC: Staphylococcus aureus MRSA KS1, read-out: MIC
Method in brief: (§1)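 MIC values come from broth microdilution run to CLSI susceptibility-testing standards. Ultrapure water and uninoculated broth served as controls. In one series, vancomycin at a final 10 μM was co-dosed with the analogue or comparator antibiotic.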

S. aureus VRSA = experiment: MIC, broth microdilution, vancomycin-resistant S. aureus (VRSA); format: cell-based, Staphylococcus aureus; conditions: for MIC: Staphylococcus aureus VRSA, read-out: MIC; for MIC-fold improvement vs. vancomycin: VRSA, ratio of MIC of vancomycin and MIC of analogue
Method in brief: as §1

MRSA KS2 = experiment: MIC, broth microdilution, MRSA KS2; format: cell-based, Staphylococcus aureus; conditions: for MIC: Staphylococcus aureus MRSA KS2, read-out: MIC
Method in brief: as §1

[1] = tested on: human cervix carcinoma (HeLa) cells; experiment: Cytostatic activity, HeLa cell proliferation; format: cell-based; conditions: mean ± SD of three experiments; highest concentration tested 250 µM; 4 days; read-out: Toxicity (IC50) HeLa
Method in brief: (§2)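 Test compounds, serially diluted, received an equal volume of cell suspension at 300,000–500,000 cells/mL. After 37°C incubation (2 days for L1210, 3 for CEM, 4 for HeLa), cells were enumerated by Coulter counting and 50%-inhibitory concentrations calculated per cell type.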

[2] = tested on: human T-lymphocyte (CEM) cells; experiment: Cytostatic activity, CEM cell proliferation; format: cell-based; conditions: mean ± SD of three experiments; highest concentration tested 250 µM; 3 days; read-out: Toxicity (IC50) CEM
Method in brief: as §2

[3] = tested on: L1210, CEM and HeLa cell lines; experiment: Cytostatic activity, average or summary over L1210, CEM and HeLa; format: cell-based
Method in brief: as §2

S. aureus VISA/HIP5827 = experiment: MIC, broth microdilution, vancomycin-intermediate S. aureus VISA HIP5827; format: cell-based, Staphylococcus aureus; conditions: for MIC: Staphylococcus aureus VISA/HIP5827, read-out: MIC; for MIC-fold improvement vs. vancomycin: VISA/HIP5827, ratio of MIC of vancomycin and MIC of analogue
Method in brief: as §1

E. coli XL-1 blue MRF' = experiment: MIC, broth microdilution, E. coli XL-1 blue MRF'; format: cell-based, Escherichia coli; conditions: E. coli XL-1 blue MRF'; for MICvanc/MICi: ratio of MIC of vancomycin and MIC of analogue
Experimental: (§3) The minimum inhibitory concentration (MIC) was determined using the broth microdilution method according to the antimicrobial susceptibility testing standards of the clinical and laboratory standards institute ([Clinical and Laboratory Standards Institute [CLSI], 2012]). Ultrapure water and non-inoculated broth were used as controls. In one case, a final concentration of 10 μM vancomycin was included with the vancomycin analog or control antibiotic.

[4] = tested on: S. aureus VSSA (ATCC 6538); experiment: MIC, broth microdilution, vancomycin-sensitive S. aureus (VSSA/MSSA, ATCC 6538); format: cell-based, Staphylococcus aureus; conditions: for MIC: Staphylococcus aureus VSSA, read-out: MIC
Method in brief: as §1

E. faecalis VRE 53 = experiment: MIC, broth microdilution, vancomycin-resistant E. faecalis VRE 53 (VanA); format: cell-based, Enterococcus faecalis; conditions: for MICvanc/MICi / MIC-fold improvement vs. vancomycin: ratio of MIC of vancomycin and MIC of analogue; for MIC: read-out: MIC; for MIC-fold improvement vs. vancomycin: VRE 53
Method in brief: as §1

E. faecalis VSE 1 = experiment: MIC, broth microdilution, vancomycin-sensitive E. faecalis (VSE 1); format: cell-based, Enterococcus faecalis; conditions: for MICvanc/MICi / MIC-fold improvement vs. vancomycin: ratio of MIC of vancomycin and MIC of analogue; for MIC: read-out: MIC; for MIC-fold improvement vs. vancomycin: VSE 1
Method in brief: as §1

MRSA KS89 = experiment: MIC, broth microdilution, MRSA KS89; format: cell-based, Staphylococcus aureus; conditions: for MIC-fold improvement vs. vancomycin: MRSA KS8, ratio of MIC of vancomycin and MIC of analogue; for MIC: Staphylococcus aureus MRSA KS8, read-out: MIC
Method in brief: as §1

B. subtilis PSB3 = experiment: MIC, broth microdilution, B. subtilis PSB3; format: cell-based, Bacillus subtilis; conditions: for MICvanc/MICi: ratio of MIC of vancomycin and MIC of analogue
Experimental: as §3

[5] = tested on: Murine leukemia (L1210) cells; experiment: Cytostatic activity, L1210 cell proliferation; format: cell-based; conditions: mean ± SD of three experiments; highest concentration tested 250 µM; 2 days; read-out: Toxicity (IC50) L1210
Method in brief: as §2

E. faecalis VRE 6 = experiment: MIC, broth microdilution, vancomycin-resistant E. faecalis VRE 6 (VanA); format: cell-based, Enterococcus faecalis; conditions: for MICvanc/MICi / MIC-fold improvement vs. vancomycin: ratio of MIC of vancomycin and MIC of analogue; for MIC: read-out: MIC; for MIC-fold improvement vs. vancomycin: VRE 6
Method in brief: as §1

E. faecalis VRE 37 = experiment: MIC, broth microdilution, vancomycin-resistant E. faecalis VRE 37 (VanA); format: cell-based, Enterococcus faecalis; conditions: for MIC: Enterococcus faecalis VRE 37 (vancomycin-resistant), read-out: MIC
Method in brief: as §1

MRSA KS6 = experiment: MIC, broth microdilution, MRSA KS6; format: cell-based, Staphylococcus aureus; conditions: for MIC-fold improvement vs. vancomycin: MRSA KS6, ratio of MIC of vancomycin and MIC of analogue; for MIC: Staphylococcus aureus MRSA KS6, read-out: MIC
Method in brief: as §1

E. faecalis VRE 29 = experiment: MIC, broth microdilution, vancomycin-resistant E. faecalis VRE 29 (VanA); format: cell-based, Enterococcus faecalis; conditions: for MIC: Enterococcus faecalis VRE 29 (vancomycin-resistant), read-out: MIC; for MIC-fold improvement vs. vancomycin: VRE 29, ratio of MIC of vancomycin and MIC of analogue
Method in brief: as §1

[6] = average of L1210, CEM and HeLa, read-out: Toxicity (IC50) Average
[7] = Enterococcus faecalis VRE 53 (vancomycin-resistant)
[8] = Enterococcus faecalis VSE 1 (vancomycin-sensitive)
[9] = Enterococcus faecalis VRE 6 (vancomycin-resistant)

| SMILES | MIC (MRSA KS1) [µM] | MIC (S. aureus VRSA) [µM] | MIC-fold improvement vs. vancomycin (S. aureus VRSA) | MIC (MRSA KS2) [µM] | IC50 [1] [µM] | IC50 [2] [µM] | IC50 [3, 6] [µM] | MIC (S. aureus VISA/HIP5827) [µM] | MIC-fold improvement vs. vancomycin (S. aureus VISA/HIP5827) | MIC (E. coli XL-1 blue MRF') [µM] | MICvanc/MICi (E. coli XL-1 blue MRF') | MIC [4] [µM] | MICvanc/MICi (E. faecalis VRE 53; E. faecalis VRE 53) | MIC (E. faecalis VRE 53; E. faecalis VRE 53) [µM] | MICvanc/MICi (E. faecalis VSE 1; E. faecalis VSE 1) | MIC (E. faecalis VSE 1; E. faecalis VSE 1) [µM] | MIC (B. subtilis PSB3) [µM] | MICvanc/MICi (B. subtilis PSB3) | MICvanc/MICi (E. faecalis VRE 6; E. faecalis VRE 6) | MIC (E. faecalis VRE 6; E. faecalis VRE 6) [µM] | also measured |
| --- | --- | --- | --- | --- | --- | --- | --- | --- | --- | --- | --- | --- | --- | --- | --- | --- | --- | --- | --- | --- | --- |
| C#CCCC(=O)NCCCNC(=O)C1NC(=O)C2NC(=O)C(NC(=O)C3NC(=O)C(CC(N)=O)NC(=O)C(NC(=O)C(CC(C)C)NC)C(O)c4ccc(c(Cl)c4)Oc4cc3cc(c4OC3OC(CO)C(O)C(O)C3OC3CC(C)(N)C(O)C(C)O3)Oc3ccc(cc3Cl)C2O)c2ccc(O)c(c2)-c2c(O)cc(O)cc21 (centres unmarked) [Vanc-B] | 0.78 (≈ 1.24 µg/mL) | 12.5 (≈ 19.8 µg/mL) | 8 | 0.78 (≈ 1.24 µg/mL) | > 250 | > 250 | > 250 | 3.13 (≈ 4.96 µg/mL) | 2 | 25 (≈ 39.6 µg/mL) | 4 | 0.78 (≈ 1.24 µg/mL) | 32 | 12.5 (≈ 19.8 µg/mL) | 2 | 0.78 (≈ 1.24 µg/mL) | 0.20 (≈ 0.317 µg/mL) | 2 | 4 | 50 (≈ 79.3 µg/mL) | IC50 ([3]; summary over the three cell lines, read-out: IC50 (L1210, CEM, HeLa), depending on the cell line used): > 250 µM; MIC (E. faecalis VRE 53; [7]): 12.5 µM (≈ 19.8 µg/mL); MIC-fold improvement vs. vancomycin (E. faecalis VRE 53): 32; MIC (E. faecalis VSE 1; [8]): 0.78 µM (≈ 1.24 µg/mL); MIC-fold improvement vs. vancomycin (E. faecalis VSE 1): 2; MIC-fold improvement vs. vancomycin (MRSA KS89): 1; MIC (MRSA KS89): 1.56 µM (≈ 2.47 µg/mL); IC50 [5]: > 250 µM; MIC (E. faecalis VRE 6; [9]): 50 µM (≈ 79.3 µg/mL); MIC-fold improvement vs. vancomycin (E. faecalis VRE 6): 4; MIC (E. faecalis VRE 37): 100 µM (≈ 159 µg/mL); MIC-fold improvement vs. vancomycin (E. faecalis VRE 37; VRE 37, ratio of MIC of vancomycin and MIC of analogue): 8; MIC-fold improvement vs. vancomycin (MRSA KS6): 0.5; MIC (MRSA KS6): 1.56 µM (≈ 2.47 µg/mL); MIC (E. faecalis VRE 29): 100 µM (≈ 159 µg/mL); MIC-fold improvement vs. vancomycin (E. faecalis VRE 29): 4 |
| C#Cc1ccc2cc(C(=O)NCCCNC(=O)[C@H]3NC(=O)[C@H]4NC(=O)[C@H](NC(=O)[C@@H]5NC(=O)[C@H](CC(N)=O)NC(=O)[C@H](NC(=O)[C@@H](CC(C)C)NC)[C@H](O)c6ccc(c(Cl)c6)Oc6cc5cc(c6O[C@@H]5O[C@H](CO)[C@@H](O)[C@H](O)[C@H]5O[C@H]5C[C@](C)(N)[C@H](O)[C@H](C)O5)Oc5ccc(cc5Cl)[C@H]4O)c4ccc(O)c(c4)-c4c(O)cc(O)cc43)ccc2c1 [Vanc-T] | 0.20 (≈ 0.337 µg/mL) | 1.56 (≈ 2.63 µg/mL) | 64 | 0.20 (≈ 0.337 µg/mL) | 75 ± 20 | 60 ± 10 | 71 | 1.56 (≈ 2.63 µg/mL) | 4 | 25 (≈ 42.1 µg/mL) | 4 | 0.10 (≈ 0.168 µg/mL) | 128 | 3.13 (≈ 5.27 µg/mL) | 32 | 0.05 (≈ 0.0842 µg/mL) | 0.39 (≈ 0.657 µg/mL) | 1 | 64 | 3.13 (≈ 5.27 µg/mL) | MIC-fold improvement vs. vancomycin (MRSA KS1; MRSA KS1, ratio of MIC of vancomycin and MIC of analogue): 4; MIC-fold improvement vs. vancomycin (MRSA KS2; MRSA KS2, ratio of MIC of vancomycin and MIC of analogue): 4; MIC-fold improvement vs. vancomycin ([4]; VSSA, ratio of MIC of vancomycin and MIC of analogue): 8; MIC (E. faecalis VRE 53; [7]): 3.13 µM (≈ 5.27 µg/mL); MIC-fold improvement vs. vancomycin (E. faecalis VRE 53): 128; MIC (E. faecalis VSE 1; [8]): 0.05 µM (≈ 0.0842 µg/mL); MIC-fold improvement vs. vancomycin (E. faecalis VSE 1): 32; MIC-fold improvement vs. vancomycin (MRSA KS89): 4; MIC (MRSA KS89): 0.20 µM (≈ 0.337 µg/mL); IC50 [5]: 77 ± 17 µM; MIC (E. faecalis VRE 6; [9]): 3.13 µM (≈ 5.27 µg/mL); MIC-fold improvement vs. vancomycin (E. faecalis VRE 6): 64; MIC (E. faecalis VRE 37): 25 µM (≈ 42.1 µg/mL); MIC-fold improvement vs. vancomycin (MRSA KS6): 2; MIC (MRSA KS6): 0.39 µM (≈ 0.657 µg/mL); MIC (E. faecalis VRE 29): 12.5 µM (≈ 21 µg/mL); MIC-fold improvement vs. vancomycin (E. faecalis VRE 29): 32 |
| C#CCNC(=O)[C@H]1NC(=O)[C@H]2NC(=O)[C@H](NC(=O)[C@@H]3NC(=O)[C@H](CC(N)=O)NC(=O)[C@H](NC(=O)[C@@H](CC(C)C)NC)[C@H](O)c4ccc(c(Cl)c4)Oc4cc3cc(c4O[C@@H]3O[C@H](CO)[C@@H](O)[C@H](O)[C@H]3O[C@H]3C[C@](C)(N)[C@H](O)[C@H](C)O3)Oc3ccc(cc3Cl)[C@H]2O)c2ccc(O)c(c2)-c2c(O)cc(O)cc21 [Vanc-G] | – | – | – | – | – | – | – | – | – | 12.5 (≈ 18.6 µg/mL) | 8 | – | 8 | 50 (≈ 74.3 µg/mL) | 4 | 0.39 (≈ 0.58 µg/mL) | 0.78 (≈ 1.16 µg/mL) | 0.5 | 2 | 100 (≈ 149 µg/mL) | – |
